Data from patent US11180483B2, “Substituted reverse pyrimidine Bmi-1 inhibitors” (PTC Therapeutics, Inc., priority 2012, dated 2021).

system: Bmi-1; experiment: Sandwich ELISA Assay (Bmi-1 ELISA) in HT-1080 cells; format: cell-based
In short: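 HT-1080 cells exposed to compound in 0.5% final DMSO for 40-48 h at 37 °C, then lysed. Bmi-1 was quantified by sandwich ELISA: mouse monoclonal capture, rabbit anti-Bmi-1 detection, HRP anti-rabbit and TMB. Read at OD450 (OD570 reference) against a recombinant GST-Bmi-1 standard curve (0-8000 pg/mL).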

EC50	SMILES
100 to 3000 nM	FC(F)(F)c1ccc(Nc2ccnc(-c3c(C(F)(F)F)nn4ccccc34)n2)cc1 [Cpd 56, N-[4-(trifluoromethyl)phenyl]-2-[2-(trifluoromethyl)pyrazolo[1,5-a]pyridin-3-yl]pyrimidin-4-amine]
10 to 100 nM	Cc1nc2ccc(F)cc2n1-c1nc(N)c(F)c(Nc2ccc(OC(F)F)c(F)c2)n1 [Cpd 111, N-[4-(difluoromethoxy)-3-fluorophenyl]-5-fluoro-2-(6-fluoro-2-methyl-1H-benzimidazol-1-yl)pyrimidine-4,6-diamine]
10 to 100 nM	Cc1ccc(Nc2nc(-n3c(C)nc4ccc([N+](=O)[O-])cc43)nc(N)c2F)cc1 [Cpd 232, 5-fluoro-2-(2-methyl-6-nitro-1H-benzimidazol-1-yl)-N-(4-methylphenyl)pyrimidine-4,6-diamine]
10 to 100 nM	COc1ccc(Nc2ccnc(-c3c(C(F)(F)F)nn4ccccc34)n2)cc1 [Cpd 60, N-(4-methoxyphenyl)-2-[2-(trifluoromethyl)pyrazolo[1,5-a]pyridin-3-yl]pyrimidin-4-amine]
10 to 100 nM	Cc1nc2ncc(Cl)cc2n1-c1nc(N)c(F)c(Nc2ccc(OC(F)F)cc2)n1 [Cpd 115, 2-(6-chloro-2-methyl-1H-imidazo[4,5-b]pyridin-1-yl)-N-[4-(difluoromethoxy)phenyl]-5-fluoropyrimidine-4,6-diamine]
10 to 100 nM	Cc1nc2ncc(Cl)cc2n1-c1nc(N)cc(Nc2ccc(C(F)(F)F)cc2)n1 [Cpd 104, 2-(6-chloro-2-methyl-1H-imidazo[4,5-b]pyridin-1-yl)-N-[4-(trifluoromethyl)phenyl]pyrimidine-4,6-diamine]
10 to 100 nM	Cc1nc2ccc(F)cc2n1-c1nc(N)c(F)c(Nc2ccc(Cl)c(F)c2)n1 [Cpd 262, N-(4-chloro-3-fluorophenyl)-5-fluoro-2-(6-fluoro-2-methyl-1H-benzimidazol-1-yl)pyrimidine-4,6-diamine]
100 to 3000 nM	Cc1nc2ccc(C#N)cc2n1-c1nc(N)c(F)c(Nc2ccc(C(F)(F)F)cc2)n1 [Cpd 222, 1-(4-amino-5-fluoro-6-{[4-(trifluoromethyl)phenyl]amino}pyrimidin-2-yl)-2-methyl-1H-benzimidazole-6-carbonitrile]
10 to 100 nM	COc1ccc2nc(C)n(-c3nc(N)c(F)c(Nc4ccc(OC(F)F)cc4)n3)c2c1 [Cpd 247, N-[4-(difluoromethoxy)phenyl]-5-fluoro-2-(6-methoxy-2-methyl-1H-benzimidazol-1-yl)pyrimidine-4,6-diamine]
1 to 10 nM	Cc1ccc(Nc2ccnc(-c3c(C(F)(F)F)nc4ccccn34)n2)cc1 [Cpd 9, N-(4-methylphenyl)-2-[2-(trifluoromethyl)imidazo[1,2-a]pyridin-3-yl]pyrimidin-4-amine]
100 to 3000 nM	Cc1c(N)nc(-n2c(C)nc3ccccc32)nc1Nc1ccc(C(F)(F)F)cc1 [Cpd 172, 5-methyl-2-(2-methyl-1H-benzimidazol-1-yl)-N-[4-(trifluoromethyl)phenyl]pyrimidine-4,6-diamine]
100 to 3000 nM	Cc1nc2c(F)cc(F)cc2n1-c1nc(N)cc(Nc2ccc(C(F)(F)F)c(F)c2)n1 [Cpd 89, 2-(4,6-difluoro-2-methyl-1H-benzimidazol-1-yl)-N-[3-fluoro-4-(trifluoromethyl)phenyl]pyrimidine-4,6-diamine]
10 to 100 nM	COc1ccc(Nc2nc(-n3c(C)nc4cc(C#N)ccc43)nc(N)c2F)cc1 [Cpd 228]
10 to 100 nM	Cc1nc2ccccc2n1-c1nc(N)cc(Nc2ccc(C(F)(F)F)cc2)n1 [Cpd 63, 2-(2-methyl-1H-benzimidazol-1-yl)-N-[4-(trifluoromethyl)phenyl]pyrimidine-4,6-diamine]
1 to 10 nM	Cc1ccc(Nc2ccnc(-c3c(C(F)(F)F)nc4ccc(F)cn34)n2)cc1 [Cpd 21, 2-[6-fluoro-2-(trifluoromethyl)imidazo[1,2-a]pyridin-3-yl]-N-(4-methylphenyl)pyrimidin-4-amine]
100 to 3000 nM	Nc1nc(-c2c(C3CC3)nn3ccccc23)nc(Nc2ccc(OC(F)F)cc2)c1F [Cpd 180, 2-(2-cyclopropylpyrazolo[1,5-a]pyridin-3-yl)-N-[4-(difluoromethoxy)phenyl]-5-fluoropyrimidine-4,6-diamine]
10 to 100 nM	Cc1nc2c(F)cc(F)cc2n1-c1nc(N)c(F)c(Nc2ccc(C(F)(F)F)cc2)n1 [Cpd 127, 2-(4,6-difluoro-2-methyl-1H-benzimidazol-1-yl)-5-fluoro-N-[4-(trifluoromethyl)phenyl]pyrimidine-4,6-diamine]
10 to 100 nM	Nc1cc(Nc2ccc(C(F)(F)F)cc2)nc(-n2c(C3CC3)nc3cc(F)ccc32)n1 [Cpd 83, 2-(2-cyclopropyl-5-fluoro-1H-benzimidazol-1-yl)-N-[4-(trifluoromethyl)phenyl]pyrimidine-4,6-diamine]
1 to 10 nM	CCc1nc2ccccc2n1-c1nc(N)c(F)c(Nc2ccc(C)cc2)n1 [Cpd 270, 2-(2-ethyl-1H-benzimidazol-1-yl)-5-fluoro-N-(4-methylphenyl)pyrimidine-4,6-diamine]

EC50	SMILES
10 to 100 nM	Cc1nc2cc(F)c(F)cc2n1-c1nc(N)cc(Nc2ccc(C(F)(F)F)cc2)n1 [Cpd 64, 2-(5,6-difluoro-2-methyl-1H-benzimidazol-1-yl)-N-[4-(trifluoromethyl)phenyl]pyrimidine-4,6-diamine]
10 to 100 nM	COc1ccc(Nc2ccnc(-c3c(C(F)(F)F)nc4ccc(F)cn34)n2)cc1 [Cpd 22, 2-[6-fluoro-2-(trifluoromethyl)imidazo[1,2-a]pyridin-3-yl]-N-(4-methoxyphenyl)pyrimidin-4-amine]
100 to 3000 nM	COc1ccc2nc(C(F)(F)F)c(-c3nccc(Nc4ccc(OC(F)F)cc4)n3)n2c1 [Cpd 51, N-[4-(difluoromethoxy)phenyl]-2-[6-methoxy-2-(trifluoromethyl)imidazo[1,2-a]pyridin-3-yl]pyrimidin-4-amine]
100 to 3000 nM	CSc1nc2ccccc2n1-c1nc(N)cc(Nc2ccc(C(F)(F)F)cc2)n1 [Cpd 182, 2-[2-(methylsulfanyl)-1H-benzimidazol-1-yl]-N-[4-(trifluoromethyl)phenyl]pyrimidine-4,6-diamine]
100 to 3000 nM	Cc1nc2cc(F)ccc2n1-c1nc(N)c(F)c(Nc2ccc(Cl)cc2)n1 [Cpd 259, N-(4-chlorophenyl)-5-fluoro-2-(5-fluoro-2-methyl-1H-benzimidazol-1-yl)pyrimidine-4,6-diamine]
≤ 1 nM	COc1ccc(Nc2nc(-n3c(C4CC4)nc4ccccc43)nc(N)c2F)cc1 [Cpd 277, 2-(2-cyclopropyl-1H-benzimidazol-1-yl)-5-fluoro-N-(4-methoxyphenyl)pyrimidine-4,6-diamine]
100 to 3000 nM	Cc1nc2ccccn2c1-c1nc(N)c(F)c(Nc2ccc(OC(F)F)cc2)n1 [Cpd 170, N-[4-(difluoromethoxy)phenyl]-5-fluoro-2-(2-methylimidazo[1,2-a]pyridin-3-yl)pyrimidine-4,6-diamine]
10 to 100 nM	Cc1nc2c(F)cccc2n1-c1nc(N)c(F)c(Nc2ccc(C(F)(F)F)cc2)n1 [Cpd 134, 5-fluoro-2-(4-fluoro-2-methyl-1H-benzimidazol-1-yl)-N-[4-(trifluoromethyl)phenyl]pyrimidine-4,6-diamine]
10 to 100 nM	Cc1nc2ccc(F)cc2n1-c1nc(N)c(F)c(Nc2ccc(OC(F)(F)F)cc2)n1 [Cpd 191, 5-fluoro-2-(6-fluoro-2-methyl-1H-benzimidazol-1-yl)-N-[4-(trifluoromethoxy)phenyl]pyrimidine-4,6-diamine]
10 to 100 nM	COCc1nc2ccccc2n1-c1nc(N)c(F)c(Nc2ccc(C(F)(F)F)cc2)n1 [Cpd 220, 5-fluoro-2-[2-(methoxymethyl)-1H-benzimidazol-1-yl]-N-[4-(trifluoromethyl)phenyl]pyrimidine-4,6-diamine]
10 to 100 nM	COc1ccc(Nc2ccnc(-n3c(C(F)(F)F)nc4ccccc43)n2)cc1Cl [Cpd 42, N-(3-chloro-4-methoxyphenyl)-2-[2-(trifluoromethyl)-1H-benzimidazol-1-yl]pyrimidin-4-amine]
100 to 3000 nM	Cc1nc2c(F)cc(F)cc2n1-c1nc(NCCO)cc(Nc2ccc(C(F)(F)F)cc2)n1 [Cpd 90, 2-{[2-(4,6-difluoro-2-methyl-1H-benzimidazol-1-yl)-6-{[4-(trifluoromethyl)phenyl]amino}pyrimidin-4-yl]amino}ethanol]
10 to 100 nM	Cc1nc2ccccn2c1-c1nccc(Nc2ccccc2)n1 [Cpd 6, 2-(2-methylimidazo[1,2-a]pyridin-3-yl)-N-phenylpyrimidin-4-amine]
10 to 100 nM	Cc1nc2ccc(Cl)cc2n1-c1nc(N)cc(Nc2ccc(C(F)(F)F)cc2)n1 [Cpd 93, 2-(6-chloro-2-methyl-1H-benzimidazol-1-yl)-N-[4-(trifluoromethyl)phenyl]pyrimidine-4,6-diamine]
10 to 100 nM	CCc1nc2cc(F)ccc2n1-c1nc(N)c(F)c(Nc2ccc(C(F)(F)F)cc2)n1 [Cpd 162, 2-(2-ethyl-5-fluoro-1H-benzimidazol-1-yl)-5-fluoro-N-[4-(trifluoromethyl)phenyl]pyrimidine-4,6-diamine]
10 to 100 nM	Cc1nc2cc(F)ccc2n1-c1nc(N)c(F)c(Nc2ccc(OC(F)F)c(F)c2)n1 [Cpd 112, N-[4-(difluoromethoxy)-3-fluorophenyl]-5-fluoro-2-(5-fluoro-2-methyl-1H-benzimidazol-1-yl)pyrimidine-4,6-diamine]
10 to 100 nM	Nc1nc(-n2c(C3CC3)nc3c(F)cccc32)nc(Nc2ccc(C(F)(F)F)cc2)c1F [Cpd 140, 2-(2-cyclopropyl-4-fluoro-1H-benzimidazol-1-yl)-5-fluoro-N-[4-(trifluoromethyl]phenyl]pyrimidine-4,6-diamine]
100 to 3000 nM	Fc1ccc2nc(C(F)(F)F)c(-c3nccc(Nc4ccc(C(F)(F)F)cc4)n3)n2c1 [Cpd 54, 2-[6-fluoro-2-(trifluoromethyl)imidazo[1,2-a]pyridin-3-yl]-N-[4-(trifluoromethyl)phenyl]pyrimidin-4-amine]
100 to 3000 nM	Cc1nc2ccc([N+](=O)[O-])cc2n1-c1nc(N)c(F)c(Nc2ccc(OC(F)F)cc2)n1 [Cpd 231, N-[4-(difluoromethoxy)phenyl]-5-fluoro-2-(2-methyl-6-nitro-1H-benzimidazol-1-yl)pyrimidine-4,6-diamine]
